Measured values from patent US7504243B2, “Methods for the production of biliverdin” (The United States of America as represented by the …, priority 2004, dated 2009).

Tested on: CaHMX1 promoter
Assay: Renilla luciferase reporter driven by the CaHMX1 promoter in knock-in strain CAMP Ki-29
Type: cell-based, Candida albicans
Settings: for Luciferase Activity: strain Ki-29, iron-replete medium, 30° C., 15 min, 1 mg/ml protein, mean±S.D. of two experiments, light units per 5×10^7 cells/assay point
Text: and cloning into pCR-BluntII TOPO (Invitrogen). The inserted fragment is then excised with SstI and PstI and cloned into plasmid pCRW3 (Srikantha, T. et al. (1996) “THE SEA PANSY RENILLA RENIFORMIS LUCIFERASE SERVES AS A SENSITIVE BIOLUMINESCENT REPORTER FOR DIFFERENTIAL GENE EXPRESSION IN CANDIDA ALBICANS,” J. Bacteriol. 178:121-129) using similar sites resulting in plasmid pPt14. This plasmid was linearized at the unique KpnI site in the CaHMX1 promoter (see, FIG. 2, Panel D) to enable recombination into the CaHMX1 genomic site in the C. albicans strain Red 3/6 (Srikantha, T. et al. (1996) “THE SEA PANSY RENILLA RENIFORMIS LUCIFERASE SERVES AS A SENSITIVE BIOLUMINESCENT REPORTER FOR DIFFERENTIAL GENE EXPRESSION IN CANDIDA ALBICANS,” J. Bacteriol. 178:121-129). […] This knock-in procedure is desirable because the reporter plasmid pPt14 is not functional when integrated into the Ade2 locus when introduced as an episome. The resulting strain, CAMP Ki-29, is used for all reporter assays discussed herein. The correct insertion sites of the preceding constructs in the genomes of strains CAMP 50 and CAMP Ki-29 are verified by Southern blotting.
Luciferase Assays—Reporter assays use C. albicans cells that are grown at 30° C. in minimal YNB medium with ammonium sulfate and 2% glucose. 5×10^7 cells were harvested, cell extracts were obtained by glass bead lysis (Srikantha, T. et al. (1996) “THE SEA PANSY RENILLA RENIFORMIS LUCIFERASE SERVES AS A SENSITIVE BIOLUMINESCENT REPORTER FOR DIFFERENTIAL GENE EXPRESSION IN CANDIDA ALBICANS,” J. Bacteriol. 178:121-129), and luminescence is determined using coelenterazine as a substrate (Promega). Luciferase activity is defined as the number of light units using 5×10^7 cells/assay point in 200 μl of lysis buffer using a 5-μl volume for light measurement. To assess regulation of the promoter by iron, the ferrous iron chelator ferrozine is added to cell cultures in the presence of FAS to buffer iron concentrations as described (Philpott, C. C. et al. (1998) “CELL-CYCLE ARREST AND INHIBITION OF G1 CYCLIN TRANSLATION BY IRON IN AFT1-1^UP YEAST,” EMBO J. 17, 5026-5036) (see also, Chaney, R. L. (1988) “PLANTS CAN UTILIZE IRON FROM IRON-N,N′-DI-2 HYDROXYBENZOYLETHYLENEDIAMINE-N,N′-DIACETIC ACID, A FERRIC CHELATE WITH 1,000,000 GREATER FORMATION CONSTANT THAN IRON-EDDHA,” J. Plant Nutr. 11, 1033-1050). FAS added to 1 mM ferrozine at 10, 100, and 400 μM represents low, optimal, and high levels of iron, respectively.
To ensure that this induction is specific for Hb, several control proteins are tested for their ability to stimulate luciferase activity in strain Ki-29 (Table 1). […] Therefore, the iron in Hb is not essential for activity, but the native conformation of globin induced by porphyrin binding is required.

## Holo-transferrin: ferroprotein transferrin, control protein from Sigma
  Luciferase Activity: 20.7 ± 0.55

## hemin [reference compound]
24 h, Hb 25 μM + ferrozine 100 μM + hemin 25 μM
  increase in activity over the iron-replete control when hemin is added to Hb combined with ferrozine: 2.5 fold
CAMP Ki-29 cells, hemin 25 μM, 24 h
  increase of CaHMX1 promoter activity by hemin after 24 h: about 2 fold
iron-deficient medium, 25 μM hemin, extended time course
  lag time before induction of promoter activity: 3 h

## Fetuin: control protein from Sigma
  Luciferase Activity: 59.3 ± 5.9

## CoPPIX-globin: The cobalt analog of Hb; cobalt protoporphyrin IX substituted for the heme in globin
  Luciferase Activity: 161.7 ± 24

## Apo-transferrin: control protein from Sigma
  Luciferase Activity: 64.4 ± 11.8

## Casein
  Luciferase Activity: 38.6 ± 8.1
